Measured values from patent US4752614A, “Pharmaceutical compositions of tellerium and selenium compounds for the induction of in vivo and in vitro production of cytokines” (Bar-Ilan University, priority 1987, dated 1988).
Values joined by “and” are separate entries in the source; they are usually repeats but may differ in a detail not shown here. Equal entries are not always repeated.

Columns and labels:
[1] = test system: IL-2; assay: IL-2 secretion by mouse spleen cells in vitro, CTLD proliferation (Example 17); type: cell-based, male Balb/c mice; conditions: for activation at 1 µg/mL: Mus musculus, read-out: Spleen Cells, percent in parentheses (increase over control)
Description: The compounds listed below were tested in vitro at various concentrations that ranged from 10 μg/ml cells to 1×10^-6 μg/ml of cell mixtures. Cells were obtained from spleens of male Balb/c mice 6-8 weeks of age. Spleens were pushed through a stainless steel 60 mesh strainer to separate cells.

[2] = test system: human mononuclear cells; assay: Proliferation of human mononuclear cells, 3H-methylthymidine (Examples 4 and 9); type: cell-based; conditions: 1 to 10 ng/ml cells, 72 hours (Example 9)
Description: Cells were further incubated overnight and harvested with a cell harvester.

[3] = test system: IL-2; assay: Oral administration in drinking water, IL-2 content of spleen cell supernatants (Example 13); type: in vivo, male Balb-C mice; conditions: 4 days
Description: The water solution was prepared by dissolving the compounds in PBS at a concentration of 50 μg/ml PBS and diluting the resulting solution to the desired concentration. The compounds were administered over a 4 day period. The exact amount of liquid intake was recorded daily. […] The cells were incubated at a concentration of 10^7 cells/ml in enriched RPMI containing 2 μg/ml of con-A for 24 hours at 37° C. The supernatants were collected and tested for IL-2 content.

[4] = test system: human mononuclear cells; assay: Proliferation of human mononuclear cells (Example 19); type: cell-based
Description: Human mononuclear cells were obtained by layering heparinized blood over a Ficoll/Hypaque gradient. The mononuclear cells were resuspended in enriched RPMI, rinsed three times and brought to a concentrations of 5×10^5 cells/ml encriched RPMI. […] Aliquots of 0.2 ml of each sample were placed in wells of microplates (triplicates). Microplates were incubated for 72 hours at 37° C. after which they were labelled with H^3 methyl-thymidine 1 μCi/well for an additional 24 hours. Cells were then harvested with a cell harvester.

[5] = test system: IL-2 receptors; assay: Induction of IL-2 receptors of human mononuclear cells, proliferation with recombinant IL-2 (Example 18); type: cell-based
Description: Human MNC were brought to a concentration of 10^6 cells/ml. RPMI+10% FCS. Aliquots of 0.2 ml. were placed in duplicate wells of microdishes and plates were incubated at 37° C. for 24 hrs. […] Plates were further incubated for 48 hrs. and labelled with 3H thymidine 24 hrs. before harvesting.
The proliferation was measured by ^3 HT uptake as described by Gillis et al, J. Immunol. […] The results are expressed in counts per minute.

[6] = test system: receptor sites for IL-2; assay: Detection of IL-2 receptors with fluoresceinated antibody (Example 21); type: cell-based, human; conditions: 1 μg/ml, 24 hours
Description: This example provides an assay to detect the presence of receptor sites for IL-2. […] The cells were washed twice with PDS and then incubated with a specific fluoresceinated antibody against IL-2 receptors as described in Uchiyama et al, J. Immunol.

[7] = test system: T-cell lymphocytes; assay: Lymphokine induction, proliferation and receptor activation in T-cell lymphocytes (statement)
Source text: Thus the invention also contemplates the use alone of TeO2 and tellurium compounds that are active as lymphokine inducers.

[8] = 24 hours, 1 μg/ml of cell mixture
[9] = second part of table, 1 × 10^-1 μg/ml
[10] = second part of table, 1 × 10^-2 μg/ml
[11] = second part of table, 1 × 10^-3 μg/ml
[12] = second part of table, 1 × 10^-4 μg/ml
[13] = second part of table, 5 × 10^-1 μg/ml
[14] = second part of table, 5 × 10^-2 μg/ml

COc1ccc([Te](Cl)(Cl)c2ccc(OC)cc2)cc1 [(pCH3 OPh)2 TeCl2, reference compound]
Spleen Cells (IL-2 activity) [1, 8]: 2,148 cpm

Cl[Te]1(Cl)OCCO1 [Example 2]
increase of proliferation of human mononuclear cells [2]: 10 fold
IL-2 content ([3]; 1 μg/ml H2O): 42500 cpm
Percent increase as compared to control ([3]; 1 μg/ml H2O): +30%
IL-2 content ([3]; 10 μg/ml H2O): 36815 cpm
IL-2 content ([3]; 25 μg/ml H2O): 44500 cpm
Percent increase as compared to control ([3]; 25 μg/ml H2O): +35%
proliferation of human mononuclear cells ([4]; Ex. 2 table, 1 × 10^-4 μg/ml): 4321 and 2332
proliferation of human mononuclear cells ([4]; Ex. 2 table, 5 × 10^-1 μg/ml): 18415 and 23957
proliferation of human mononuclear cells ([4]; Ex. 2 table, 5 × 10^-2 μg/ml): 5953 and 5532
Spleen Cells (IL-2 activity) [1, 8]: 18,000 cpm
activation at 1 µg/mL [1, 8]: 605%
proliferation (3HT uptake) ([5]; Test B, 1 μg/ml): 9315 counts per minute
proliferation (3HT uptake) ([5]; Test B, 1 × 10^-2 μg/ml): 6418 counts per minute
proliferation (3HT uptake) ([5]; Test B, 1 × 10^-3 μg/ml): 5167 counts per minute
proliferation (3HT uptake) ([5]; Test B, 1 × 10^-4 μg/ml): 5372 counts per minute
proliferation (3HT uptake) ([5]; Test B, 1 × 10^-5 μg/ml): 6397 counts per minute
proliferation (3HT uptake) ([5]; Test B, 5 × 10^-1 μg/ml): 8688 counts per minute
proliferation (3HT uptake) ([5]; Test B, 5 × 10^-2 μg/ml): 5538 counts per minute
proliferation (3HT uptake) ([5]; Test B, 7 × 10^-1 μg/ml): 5250 counts per minute

C1CO[Te]2(O1)OCCO2 [Example 14]
Spleen Cells (IL-2 activity) [1, 8]: 10,300 cpm
activation at 1 µg/mL [1, 8]: 304%
proliferation (3HT uptake) ([5]; Test B, 1 μg/ml): 2620 counts per minute
proliferation (3HT uptake) ([5]; Test B, 1 × 10^-2 μg/ml): 3928 counts per minute
proliferation (3HT uptake) ([5]; Test B, 1 × 10^-3 μg/ml): 3007 counts per minute
proliferation (3HT uptake) ([5]; Test B, 1 × 10^-4 μg/ml): 2327 counts per minute
proliferation (3HT uptake) ([5]; Test B, 1 × 10^-5 μg/ml): 2242 counts per minute
proliferation (3HT uptake) ([5]; Test B, 5 × 10^-1 μg/ml): 2402 counts per minute
proliferation (3HT uptake) ([5]; Test B, 5 × 10^-2 μg/ml): 3290 counts per minute
proliferation (3HT uptake) ([5]; Test B, 7 × 10^-1 μg/ml): 2000 counts per minute

CC1CO[TeH](Cl)(Cl)(Cl)O1 (centres unmarked) [Example 16(a)]
proliferation of human mononuclear cells ([4]; second part of table, 1 μg/ml): 4557
proliferation of human mononuclear cells ([4]; second part of table, 5 μg/ml): 4118
proliferation of human mononuclear cells [4, 9]: 12435
proliferation of human mononuclear cells [4, 10]: 6000
proliferation of human mononuclear cells [4, 11]: 6300
proliferation of human mononuclear cells [4, 12]: 4587
proliferation of human mononuclear cells [4, 13]: 18415
proliferation of human mononuclear cells [4, 14]: 5953
Spleen Cells (IL-2 activity) [1, 8]: 13,540 cpm
activation at 1 µg/mL [1, 8]: 435%
proliferation (3HT uptake) ([5]; Test A, 1 μg/ml): 21910 counts per minute
proliferation (3HT uptake) ([5]; Test A, 1 × 10^-2 μg/ml): 9543 counts per minute
proliferation (3HT uptake) ([5]; Test A, 1 × 10^-3 μg/ml): 6685 counts per minute
proliferation (3HT uptake) ([5]; Test A, 1 × 10^-4 μg/ml): 6447 counts per minute
proliferation (3HT uptake) ([5]; Test A, 1 × 10^-5 μg/ml): 8177 counts per minute
proliferation (3HT uptake) ([5]; Test A, 5 × 10^-1 μg/ml): 145208 counts per minute
proliferation (3HT uptake) ([5]; Test A, 5 × 10^-2 μg/ml): 8752 counts per minute
proliferation (3HT uptake) ([5]; Test A, 7 × 10^-1 μg/ml): 130845 counts per minute

CC1O[TeH](Cl)(Cl)(Cl)OC1C (centres unmarked) [Example 16(b)]
Spleen Cells (IL-2 activity) [1, 8]: 10,650 cpm
activation at 1 µg/mL [1, 8]: 318%
proliferation (3HT uptake) ([5]; Test A, 1 μg/ml): 1018 counts per minute
proliferation (3HT uptake) ([5]; Test A, 1 × 10^-2 μg/ml): 5883 counts per minute
proliferation (3HT uptake) ([5]; Test A, 1 × 10^-3 μg/ml): 1093 counts per minute
proliferation (3HT uptake) ([5]; Test A, 1 × 10^-4 μg/ml): 1138 counts per minute
proliferation (3HT uptake) ([5]; Test A, 1 × 10^-5 μg/ml): 2146 counts per minute
proliferation (3HT uptake) ([5]; Test A, 5 × 10^-1 μg/ml): 1195 counts per minute
proliferation (3HT uptake) ([5]; Test A, 5 × 10^-2 μg/ml): 1602 counts per minute
proliferation (3HT uptake) ([5]; Test A, 7 × 10^-1 μg/ml): 2102 counts per minute

Cl[TeH]1(Cl)(Cl)OCCCO1 [Example 16(c)]
Spleen Cells (IL-2 activity) [1, 8]: 15,720 cpm
activation at 1 µg/mL [1, 8]: 516%

Cl[TeH]1(Cl)(Cl)OCCCCO1 [Example 16(d)]
Spleen Cells (IL-2 activity) [1, 8]: 18,075 cpm
activation at 1 µg/mL [1, 8]: 608%

CC(=O)O[Te](OC(C)=O)(c1ccccc1)c1ccccc1 [Ph2 Te (OCOCH3)2, reference compound]
Spleen Cells (IL-2 activity) [1, 8]: 3,500 cpm
activity at level tested (footnote *) [1]: no significant activity

O=C(O[Te](OC(=O)c1ccccc1)(c1ccccc1)c1ccccc1)c1ccccc1 [Ph2 Te (OCOPh)2, reference compound]
Spleen Cells (IL-2 activity) [1, 8]: 4,300 cpm
activity at level tested (footnote *) [1]: no significant activity

Cl[Te](Cl)(c1ccccc1)c1ccccc1 [Ph2 Te Cl2, reference compound]
Spleen Cells (IL-2 activity) [1, 8]: 2,300 cpm
activity at level tested (footnote *) [1]: no significant activity

Cl[Te](Cl)(Cl)c1ccccc1 [Ph Te Cl3, reference compound]
Spleen Cells (IL-2 activity) [1, 8]: 18,000 cpm
activation at 1 µg/mL [1, 8]: 605%

O=[Te]=O [TeO2, Tellurium dioxide, reference compound]
cells positive for IL-2 receptors [6]: 5%
activation of the receptor site in responder T-cell lymphocytes [7]: will not cause proliferation of IL-2 producer cells or activate the receptor site
proliferation of IL-2 producer cells [7]: will not cause proliferation of IL-2 producer cells
lymphokine production in producer T-cell lymphocytes ([7]; in vitro and in vivo): will induce lymphokine production
effect on proliferation ([4]; any concentration that was tested): No significant effect
proliferation of human mononuclear cells ([4]; second part of table, 1 μg/ml): 2842
proliferation of human mononuclear cells ([4]; second part of table, 5 μg/ml): 3028
proliferation of human mononuclear cells [4, 9]: 4825
proliferation of human mononuclear cells [4, 10]: 4730
proliferation of human mononuclear cells [4, 11]: 6168
proliferation of human mononuclear cells [4, 12]: 5331
proliferation of human mononuclear cells [4, 13]: 4773
proliferation of human mononuclear cells [4, 14]: 5802
Spleen Cells (IL-2 activity) [1, 8]: 17,055 cpm
Spleen Cells, percent in parentheses (increase over control) [1, 8]: +508%
proliferation (3HT uptake) ([5]; Test A, 1 μg/ml): 1563 counts per minute
proliferation (3HT uptake) ([5]; Test A, 1 × 10^-2 μg/ml): 3108 counts per minute
proliferation (3HT uptake) ([5]; Test A, 1 × 10^-3 μg/ml): 2867 counts per minute
proliferation (3HT uptake) ([5]; Test A, 1 × 10^-4 μg/ml): 5540 counts per minute
proliferation (3HT uptake) ([5]; Test A, 1 × 10^-5 μg/ml): 3442 counts per minute
proliferation (3HT uptake) ([5]; Test A, 5 × 10^-1 μg/ml): 4667 counts per minute
proliferation (3HT uptake) ([5]; Test A, 5 × 10^-2 μg/ml): 2515 counts per minute
proliferation (3HT uptake) ([5]; Test A, 7 × 10^-1 μg/ml): 2475 counts per minute
proliferation (3HT uptake) ([5]; Test B, 1 μg/ml): 3275 counts per minute
proliferation (3HT uptake) ([5]; Test B, 1 × 10^-2 μg/ml): 3077 counts per minute
proliferation (3HT uptake) ([5]; Test B, 1 × 10^-3 μg/ml): 3800 counts per minute
proliferation (3HT uptake) ([5]; Test B, 1 × 10^-4 μg/ml): 2925 counts per minute
proliferation (3HT uptake) ([5]; Test B, 1 × 10^-5 μg/ml): 3645 counts per minute
proliferation (3HT uptake) ([5]; Test B, 5 × 10^-1 μg/ml): 5405 counts per minute
proliferation (3HT uptake) ([5]; Test B, 5 × 10^-2 μg/ml): 4280 counts per minute
proliferation (3HT uptake) ([5]; Test B, 7 × 10^-1 μg/ml): 4302 counts per minute
